Data as given in patent US20140220058A1, “VACCINE COMPOSITION FOR TRANSDERMAL OR MUCOSAL ADMINISTRATION” (NITTO DENKO CORPORATION, priority 2013, published 2014).
“Also recorded” adds a separate entry of the source.

What was measured:
[1] = tested on: IFN-γ producing cells; assay: Promotion of immunity induction using a mucosal vaccine (conclusion from Tables 4, 5 and 6); type: in vivo, mouse; conditions: acid as component of sublingual liquid formulations
[2] = tested on: IFN-γ producing cells; assay: Promotion of immunity induction via transdermal immunization (conclusion from Tables 1, 2, 3, 8 and 10); type: in vivo, mouse; conditions: acid as component of tape, liquid or cream formulations

Row | SMILES | promotion of immunity induction using a mucosal vaccine (in words) [1] | promotion of immunity induction via transdermal immunization (in words) [2]
1 | O=C(O)CC(O)(CC(=O)O)C(=O)O [citric acid] | suitable; also recorded: particularly preferable | –
2 | CCCCCCCCCC(=O)O [decanoic acid] | – | suitable; also recorded: particularly preferable
3 | CC(C)CCCCCCCCCCCCCCC(=O)O [isostearic acid] | suitable; also recorded: particularly preferable | suitable; also recorded: preferable
4 | CC(O)C(=O)O (stereo not shown) [lactic acid] | suitable; also recorded: particularly preferable | suitable; also recorded: particularly preferable
5 | CCCCCCCCCCCC(=O)O [lauric acid] | – | suitable; also recorded: particularly preferable
6 | O=C(O)/C=C\C(=O)O [maleic acid] | suitable; also recorded: preferable | suitable; also recorded: preferable
7 | O=C(O)CC(O)C(=O)O (stereo not shown) [malic acid] | suitable | suitable; also recorded: preferable
8 | CS(=O)(=O)O [methanesulfonic acid] | – | suitable; also recorded: particularly preferable
9 | CCCCCCCCCCCCCC(=O)O [myristic acid] | suitable; also recorded: particularly preferable | suitable; also recorded: particularly preferable
10 | CCCCCCCC/C=C\CCCCCCCC(=O)O [oleic acid] | – | suitable; also recorded: preferable
11 | CCCCCCCCCCCCCCCC(=O)O [palmitic acid] | – | suitable; also recorded: particularly preferable
12 | O=C(O)c1ccccc1O [salicylic acid] | suitable | suitable; also recorded: particularly preferable
13 | CCCCCCCCCCCCCCCCCC(=O)O [stearic acid] | – | suitable; also recorded: particularly preferable
